Data published in patent publication US10227331B2 (priority 2015, dated 2019).

Columns and labels:
[1] = system: Serratia marcescens expressing IMP-1 (CL5741); assay type: cell-based; conditions: IMP-1 (CL5741), with imipenem 1 μg/ml, 95% inhibition of bacterial growth
Summary of the method: (§1)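 Clinical strains grown overnight on blood agar, then diluted 1:100 in 1.1× CAMHB and exposed to test compound with imipenem at 1 μg/ml. Incubation was 22–24 h at 35° C; growth was read by absorbance to find the compound concentration restoring imipenem susceptibility.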

[2] = system: Escherichia coli expressing NDM-1 (CLB30005, CLB30016); assay type: cell-based; conditions: NDM-1 (CLB30016), with imipenem 1 μg/ml, 95% inhibition of bacterial growth
Summary of the method: as §1

[3] = system: Klebsiella pneumoniae expressing VIM-1 (IHMA599644); assay type: cell-based; conditions: VIM-1 (IHMA599644), with imipenem 1 μg/ml, 95% inhibition of bacterial growth
Summary of the method: as §1

[4] = system: P. aeruginosa expressing IMP-1, efflux− (MB9799); experiment: Efflux: concentration of MBL inhibitor which restores susceptibility to imipenem; assay type: cell-based, Pseudomonas aeruginosa; conditions: imipenem at 2 μg/mL, in the presence of a class A, C, D serine β-lactamase inhibitor closely related to relebactam
Source text: (§2) The strain background is Pseudomonas aeruginosa PAO1.

VIM-1 = VIM-1 (Pseudomonas aeruginosa (strain ATCC 15692 / DSM 22644 / CIP 104116 / JCM 14847 / LMG 12228 / 1C / PRS 101 / PAO1), UniProt A0A0F7KYQ8); experiment: biochemical; conditions: CCF2-FA substrate, 2 hours at 25° C
Summary of the method: (§3)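 Class B activity is measured in the presence of compound by fluorescence with CCF2-FA after a 2-hour incubation at 25° C. IC50 is taken from a 4-parameter fit of semi-logarithmic dose-response data.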

[5] = system: P. aeruginosa expressing IMP-1, efflux+ (MB9798); assay type: cell-based, Pseudomonas aeruginosa; conditions: for P. aeruginosa expressing IMP-1, efflux+ (MB9798) MITC95: imipenem at 2 μg/mL, in the presence of a class A, C, D serine β-lactamase inhibitor closely related to relebactam; for Efflux ratio: ratio MITC95 PA_9798/MITC95 PA_9799
Source text: as §2

NDM-1 = NDM-1 (Klebsiella pneumoniae, UniProt C7C422); experiment: biochemical; assay type: biochemical; conditions: CCF2-FA substrate, 2 hours at 25° C; read-out: NDM-1 IC50
Sequence of NDM-1 (C7C422 whole entry, looked up, species assumed): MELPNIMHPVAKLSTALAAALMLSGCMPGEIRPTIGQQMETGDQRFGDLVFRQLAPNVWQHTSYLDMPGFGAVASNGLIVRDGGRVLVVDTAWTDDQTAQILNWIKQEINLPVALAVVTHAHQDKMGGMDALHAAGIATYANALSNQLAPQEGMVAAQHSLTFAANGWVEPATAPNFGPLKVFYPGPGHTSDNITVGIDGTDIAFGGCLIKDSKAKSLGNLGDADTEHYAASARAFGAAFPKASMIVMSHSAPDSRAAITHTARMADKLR
Summary of the method: as §3

IMP-1 = IMP-1 (Serratia marcescens, UniProt P52699); experiment: biochemical; assay type: biochemical; conditions: CCF2-FA substrate, 2 hours at 25° C; read-out: IMP-1 IC50
Sequence of IMP-1 (P52699 whole entry, looked up, species assumed): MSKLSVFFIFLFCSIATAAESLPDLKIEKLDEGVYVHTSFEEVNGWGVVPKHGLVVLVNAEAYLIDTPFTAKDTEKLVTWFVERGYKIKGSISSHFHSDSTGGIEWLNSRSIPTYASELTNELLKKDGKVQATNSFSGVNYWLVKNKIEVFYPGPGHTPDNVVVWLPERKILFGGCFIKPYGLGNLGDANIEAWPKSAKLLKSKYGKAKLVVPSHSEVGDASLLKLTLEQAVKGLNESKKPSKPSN
Summary of the method: as §3

Row | SMILES | Serratia marcescens MITC95 [1] [µM] | Escherichia coli MITC95 [2] [µM] | Klebsiella pneumoniae MITC95 [3] [µM] | P. aeruginosa expressing IMP-1, efflux− (MB9799) MITC95 [4] [µM] | IC50 (VIM-1) [nM] | P. aeruginosa expressing IMP-1, efflux+ (MB9798) MITC95 [5] [µM] | Efflux ratio [5] | IC50 (NDM-1) [nM] | IC50 (IMP-1) [nM]
1 | NCCS(=O)(=O)c1ccc(-c2ccccc2NC(=O)CN)c(-c2nn[nH]n2)c1S(N)(=O)=O [Example 340, 2-Amino-N-(4′-((2-aminoethyl)sulfonyl)-3′-sulfamoyl-2′-(2H-tetrazol-5-yl)-[1,1′-biphenyl]-2-yl)acetamide] | 3.125 | 1.563 | 3.125 | 3.125 | 8.16 | 12.5 | 4.00 | 24.8 | 107
2 | COC(=O)c1cccc(-c2ccc(S(=O)(=O)CCN)c(S(N)(=O)=O)c2-c2nn[nH]n2)c1NCCN [Example 341, Methyl 2-((2-aminoethyl)amino)-4′-((2-aminoethyl)sulfonyl)-3′-sulfamoyl-2′-(2H-tetrazol-5-yl)-[1,1′-biphenyl]-3-carboxylate] | 3.125 | 1.563 | 3.125 | 1.563 | 4.46 | 25 | 15.99 | 4.01 | 16.1
3 | NCCNC(=O)c1ccccc1-c1ccc(S(=O)(=O)CCN)c(S(N)(=O)=O)c1-c1nn[nH]n1 [Example 342, N-(2-Aminoethyl)-4′-((2-aminoethyl)sulfonyl)-3′-sulfamoyl-2′-(2H-tetrazol-5-yl)-[1,1′-biphenyl]-2-carboxamide] | 3.125 | 1.563 | 1.563 | 3.125 | 2.84 | 12.5 | 4.00 | 15.3 | 34.2
4 | NS(=O)(=O)c1c(S(=O)(=O)C2CNC2)ccc(-c2ccnc(N3CCNC3=O)c2)c1-c1nnn[nH]1 [Example 343, 6-(Azetidin-3-ylsulfonyl)-3-(2-(2-oxoimidazolidin-1-yl)pyridin-4-yl)-2-(1H-tetrazol-5-yl)benzenesulfonamide] | 3.125 | 3.125 | 6.25 | 1.563 | 0.198 | 25 | 15.99 | 0.51 | 1.89
5 | Nc1nnc(-c2cccc(-c3ccc(S(=O)(=O)C4CNC4)c(S(N)(=O)=O)c3-c3nnn[nH]3)c2)o1 [Example 344, 3′-(5-Amino-1,3,4-oxadiazol-2-yl)-4-(azetidin-3-ylsulfonyl)-2-(1H-tetrazol-5-yl)-[1,1′-biphenyl]-3-sulfonamide] | 3.125 | 3.125 | 6.25 | 1.563 | 0.268 | 25 | 15.99 | 0.47 | 1.7
6 | NCCS(=O)(=O)c1ccc(-c2cccc(-n3ccnc3)c2)c(-c2nnn[nH]2)c1S(N)(=O)=O [Example 345, 4-((2-Aminoethyl)sulfonyl)-3′-(1H-imidazol-1-yl)-2-(1H-tetrazol-5-yl)-[1,1′-biphenyl]-3-sulfonamide] | 1.563 | 0.7813 | 3.125 | 0.7813 | 0.434 | 25 | 32.00 | 1.96 | 0.857
7 | NCCS(=O)(=O)c1ccc(-c2cccc(-c3c[nH]c(N)n3)c2)c(-c2nnn[nH]2)c1S(N)(=O)=O [Example 346, 3′-(2-Amino-1H-imidazol-4-yl)-4-((2-aminoethyl)sulfonyl)-2-(1H-tetrazol-5-yl)-[1,1′-biphenyl]-3-sulfonamide] | 1.563 | 0.3906 | 1.563 | 0.7813 | 0.931 | 6.25 | 8.00 | 0.518 | 1.97
8 | NCCS(=O)(=O)c1ccc(-c2cccc3c2NC(=O)C3O)c(-c2nnn[nH]2)c1S(N)(=O)=O (centres unmarked) [Example 347, 6-((2-Aminoethyl)sulfonyl)-3-(3-hydroxy-2-oxoindolin-7-yl)-2-(1H-tetrazol-5-yl)benzenesulfonamide] | 1.563 | 3.125 | 6.25 | 3.125 | 0.933 | 12.5 | 4.00 | 1.73 | 1.34
9 | C[C@@H](N)CS(=O)(=O)c1ccc(-c2cccc3[nH]c(C(=O)O)nc23)c(-c2nn[nH]n2)c1S(N)(=O)=O [Example 348, Ammonium (R)-4-(4-((2-aminopropyl)sulfonyl)-3-sulfamoyl-2-(2H-tetrazol-5-yl)phenyl)-1H-benzo[d]imidazole-2-carboxylate] | 3.125 | 3.125 | 6.25 | 3.125 | 0.478 | 25 | 8.00 | 0.163 | 0.847
10 | Nc1nc2c(-c3ccc(S(=O)(=O)[C@@H]4CN[C@H](CO)C4)c(S(N)(=O)=O)c3-c3nn[nH]n3)cccc2s1 [Example 349, 3-(2-Aminobenzo[d]thiazol-4-yl)-6-(((3 S,5S)-5-(hydroxymethyl)pyrrolidin-3-yl)sulfonyl)-2-(2H-tetrazol-5-yl)benzenesulfonamide] | 1.563 | 3.125 | 3.125 | 1.563 | 0.452 | 1.563 | 1.00 | 0.0659 | 0.22
11 | Nc1nc2c(-c3ccc(S(=O)(=O)[C@@H]4CN[C@H](CO)C4)c(S(N)(=O)=O)c3-c3nn[nH]n3)cccc2[nH]1 [Example 350, 3-(2-Amino-1H-benzo[d]imidazol-4-yl)-6-(((3S,5S)-5-(hydroxymethyl)pyrrolidin-3-yl)sulfonyl)-2-(2H-tetrazol-5-yl)benzenesulfonamide] | 1.563 | 0.7813 | 3.125 | 1.563 | 0.674 | 1.563 | 1.00 | 0.25 | 0.982
12 | NC[C@H](CO)S(=O)(=O)c1ccc(-c2cccc3nc(N)[nH]c23)c(-c2nn[nH]n2)c1S(N)(=O)=O [Example 351, (R)-3-(2-amino-1H-benzo[d]imidazol-7-yl)-6-((1-amino-3-hydroxypropan-2-yl)sulfonyl)-2-(1H-tetrazol-5-yl)benzenesulfonamide] | 0.7813 | 0.7813 | 1.563 | 0.7813 | 0.711 | 0.7813 | 1.00 | 0.2 | 1.36
13 | NC[C@@H](O)CS(=O)(=O)c1ccc(-c2cccc3sc(N)nc23)c(-c2nn[nH]n2)c1S(N)(=O)=O [Example 352, (R)-6-((3-amino-2-hydroxypropyl)sulfonyl)-3-(2-aminobenzo[d]thiazol-4-yl)-2-(2H-tetrazol-5-yl) benzenesulfonamide] | 0.7813 | 0.7813 | 1.563 | 0.7813 | 0.255 | 0.3906 | – | 0.0658 | 0.145
